This is an account of results in patent US20190142971A1, “FORMULATION AND DELIVERY OF MODIFIED NUCLEOSIDE, NUCLEOTIDE, AND NUCLEIC ACID COMPOSITIONS” (ModernaTX, Inc., priority 2013, published 2019).

Series [1] concerns Balb-C mice. As to the kind of experiment: Example 112: luciferase mRNA electroporation dose response, total flux (Tables 179, 180). Conditions: mouse, in vivo. On the procedure: The mice undergoing electroporation were subjected to electroporation (EP) using the […]™ instrument (Harvard Apparatus/BTX®, Holliston, Mass.), as outlined in Table 179, immediately after the administration of luciferase or the control.
All of the mice are imaged at 3 hours, 24 hours, 48 hours, 168 hours, 336 hours and 504 hours post-administration of luciferase modified mRNA. Twenty minutes prior to imaging, the mice are injected intraperitoneally with a D-luciferin solution at 150 mg/kg. Animals are then anesthetized and images were acquired with an IVIS Lumina II imaging system (Perkin Elmer). Bioluminescence is measured as total flux (photons/second) of the entire mouse.

Series [2] has as its system Balb-C mice. As to the kind of experiment: Example 108: luciferase mRNA IM with electroporation, total flux (Tables 174-176). It counts as in vivo. Conditions: 2.5 mg/kg IM with electroporation. Here is the method: The mice of Group 2 were treated with electroporation (EP) using the […]™ instrument (Harvard Apparatus/BTX®, Holliston, Mass.) immediately after administration of luciferase.
[…] Twenty minutes prior to imaging, the mice were injected intraperitoneally with a D-luciferin solution at 150 mg/kg. Animals were then anesthetized and images were acquired with an IVIS Lumina II imaging system (Perkin Elmer). Bioluminescence was measured as total flux (photons/second) of the entire mouse.

The subject of series [3] is Balb-C mice. As to the kind of experiment: Example 85: lipoplexed luciferase mRNA IV, IM, SC, flux and organ flux (Tables 131, 132). It counts as in vivo. As to conditions: 0.10 mg/kg; for Flux (average total flux, entire mouse): Balb-C mice; for Organ Flux, Inj. Site: imaged at 6 hours; for Organ Flux, Kidney / Organ Flux, Liver / Organ Flux, Lung / Organ Flux, Spleen: organs imaged at 6 hours. On the procedure:
The formulation was administered intravenously (I.V.), intramuscularly (I.M.) or subcutaneously (S.C.) to Balb-C mice at a dose of 0.10 mg/kg.
Twenty minutes prior to imaging, mice were injected intraperitoneally with a D-luciferin solution at 150 mg/kg. Animals were then anesthetized and images were acquired with an IVIS Lumina II imaging system (Perkin Elmer). Bioluminescence was measured as total flux (photons/second) of the entire mouse. The mice were imaged at 8 hours, 24 hours and 48 hours after dosing and the average total flux (photons/second) was measured for each route of administration and chemical modification. The background signal was about 3.91E+05 p/s. Organs were imaged at 6 hours and the average total flux (photons/second) was measured for the liver, spleen, lung and kidney. A control for each organ was also analyzed.

In series [4] the test system is Balb-C mice. As to the kind of experiment: Example 76: modified luciferase mRNA in PBS IM, SC in mice, total flux (Tables 115, 116). It counts as in vivo. As to conditions: 2.5 mg/kg, PBS (pH 7.4). Here is the method: The mice were imaged at 2 hours, 8 hours, 24 hours, 48 hours, 72 hours, 96 hours, 120 hours and 144 hours for intramuscular delivery and 2 hours, 8 hours, 24 hours, 48 hours, 72 hours, 96 hours and 120 hours for subcutaneous delivery. Twenty minutes prior to imaging, mice were injected intraperitoneally with a D-luciferin solution at 150 mg/kg. Animals were then anesthetized and images were acquired with an IVIS Lumina II imaging system (Perkin Elmer). Bioluminescence was measured as total flux (photons/second) of the entire mouse. The average total flux (photons/second) for intramuscular administration is shown in Table 115 and the average total flux (photons/second) for subcutaneous administration is shown in Table 116. The background signal was 3.79E+05 (p/s). The peak expression for intramuscular administration was seen between 24 and 48 hours for all chemistry and expression was still detected at 144 hours.

Series [5] deals with Balb-C mice. The series can be described thus: Example 113: FGF21 mRNA IM with or without electroporation, serum FGF21 (Tables 181, 182). It counts as in vivo. As to conditions: 5 mg/kg IM. On the procedure:
The mice undergoing electroporation were subjected to electroporation (EP) using the […]′ instrument (Harvard Apparatus/BTX®, Holliston, Mass.), as outlined in Table 181, immediately after the administration of FGF21 mRNA or the control.
Serum was collected from the mice at 2 hours and 8 hours.

For the molecule “Luciferase modified mRNA: luciferase mRNA, SEQ ID NO: 14, fully modified with 5-methylcytosine and 1-methylpseudouridine, in PBS (pH 7.4)”, the “protein expression with vs without electroporation” value in the series on Balb-C mice [1] is reported as “increase protein expression”. For the same molecule, the “expression greater than an order of magnitude above background out to” value with Balb-C mice [2] came to 480 h. Moreover, the “Flux (average total flux, entire mouse)” value with Balb-C mice [3] (I.M., 8 hrs) came to 2.53E+06 p/s; in the series on Balb-C mice [3] (I.M., 24 hrs) it was 7.84E+05 p/s; in the series with Balb-C mice [3] (I.M., 48 hrs) it was 6.59E+05 p/s; with Balb-C mice [3] (I.V., 8 hrs), 1.78E+06 p/s; with Balb-C mice [3] (I.V., 24 hrs), 7.13E+05 p/s; in the series on Balb-C mice [3] (I.V., 48 hrs) it was 3.76E+05 p/s. The “Flux (average total flux, entire mouse)” value in the series on Balb-C mice [3] (S.C., 8 hrs) is on record as 6.48E+06 p/s; in the series on Balb-C mice [3] (S.C., 24 hrs), 7.15E+06 p/s; with Balb-C mice [3] (S.C., 48 hrs), 3.20E+06 p/s. The entries for the “Organ Flux, Inj. Site” value in the series with Balb-C mice [3] (I.M.) and in the series with Balb-C mice [3] (S.C.) were 1.20E+06 p/s and 8.29E+04 p/s, respectively. In addition, the “Organ Flux, Kidney” value in the series with Balb-C mice [3] (I.M.) was 1.56E+04 p/s; in the series with Balb-C mice [3] (I.V.), 1.77E+04 p/s; in the series on Balb-C mice [3] (S.C.) it was 1.14E+04 p/s. For the same molecule, the “Organ Flux, Liver” value in the series with Balb-C mice [3] (I.M.) worked out at 1.72E+04 p/s; with Balb-C mice [3] (I.V.) it was 1.48E+05 p/s; in the series on Balb-C mice [3] (S.C.) it was 1.20E+04 p/s. The “Organ Flux, Lung” value in the series on Balb-C mice [3] (I.M.) worked out at 1.99E+04 p/s; in the series on Balb-C mice [3] (I.V.), 1.93E+06 p/s; with Balb-C mice [3] (S.C.), 1.38E+04 p/s. Also, the “Organ Flux, Spleen” value in the series on Balb-C mice [3] (I.M.) was found to be 1.76E+04 p/s; in the series on Balb-C mice [3] (I.V.) it was 5.00E+06 p/s; in the series on Balb-C mice [3] (S.C.), 1.46E+04 p/s. Also, the Flux is reported as 4.65E+06 p/s in the series on Balb-C mice [4] (Intramuscular, 2 hours); 3.64E+06 p/s in the series on Balb-C mice [4] (Intramuscular, 8 hours); 1.22E+07 p/s with Balb-C mice [4] (Intramuscular, 24 hours); 1.01E+07 p/s in the series on Balb-C mice [4] (Intramuscular, 48 hours); 8.59E+06 p/s in the series on Balb-C mice [4] (Intramuscular, 72 hours); 2.70E+06 p/s in the series with Balb-C mice [4] (Intramuscular, 96 hours). Besides, the Flux came out at 1.60E+06 p/s with Balb-C mice [4] (Intramuscular, 120 hours); 2.19E+06 p/s in the series with Balb-C mice [4] (Intramuscular, 144 hours); 4.54E+06 p/s with Balb-C mice [4] (Subcutaneous, 2 hours); 8.75E+05 p/s in the series on Balb-C mice [4] (Subcutaneous, 8 hours); 5.49E+06 p/s with Balb-C mice [4] (Subcutaneous, 24 hours); 1.77E+06 p/s in the series on Balb-C mice [4] (Subcutaneous, 48 hours). Further, the Flux in the series with Balb-C mice [4] (Subcutaneous, 72 hours) is on record as 8.00E+05 p/s; in the series on Balb-C mice [4] (Subcutaneous, 96 hours) it was 5.33E+05 p/s; in the series on Balb-C mice [4] (Subcutaneous, 120 hours), 4.09E+05 p/s.

B1: FGF21 modified mRNA: Fibroblast Growth Factor 21 mRNA, SEQ ID NO: 24, 5-methylcytosine and 1-methylpseudouridine, in PBS (nucleic acid)
chain: GGGAAAUAAGAGAGAAAAGAAGAGUAAGAAGAAAUAUAAGAGCCACCAUGGACUCGGACGAGACCGGGUUCGAGCACUCAGGACUGUGGGUUUCUGUGCUGGCUGGUCUUCUGCUGGGAGCCUGCCAGGCACACCCCAUCCCUGACUCCAGUCCUCUCCUGCAAUUCGGGGGCCAAGUCCGGCAGCGGUACCUCUACACAGAUGAUGCCCAGCAGACAGAAGCCCACCUGGAGAUCAGGGAGGAUGGGACGGUGGGGGGCGCUGCUGACCAGAGCCCCGAAAGUCUCCUGCAGCUGAAAGCCUUGAAGCCGGGAGUUAUUCAAAUCUUGGGAGUCAAGACAUCCAGGUUCCUGUGCCAGCGGCCAGAUGGGGCCCUGUAUGGAUCGCUCCACUUUGACCCUGAGGCCUGCAGCUUCCGGGAGCUGCUUCUUGAGGACGGAUACAAUGUUUACCAGUCCGAAGCCCACGGCCUCCCGCUGCACCUGCCAGGGAACAAGUCCCCACACCGGGACCCUGCACCCCGAGGACCAGCUCGCUUCCUGCCACUACCAGGCCUGCCCCCCGCACCCCCGGAGCCACCCGGAAUCCUGGCCCCCCAGCCCCCCGAUGUGGGCUCCUCGGACCCUCUGAGCAUGGUGGGACCUUCCCAGGGCCGAAGCCCCAGCUACGCUUCCUGAUAAUAGGCUGGAGCCUCGGUGGCCAUGCUUCUUGCCCCUUGGGCCUCCCCCCAGCCCCUCCUCCCCUUCCUGCACCCGUACCCCCGUGGUCUUUGAAUAAAGUCUGAGUGGGCGGC
modifications: 5-methylcytosine, 1-methylpseudouridine
In the case of B1, in the series with Balb-C mice [5], the “protein production with vs without electroporation” value is “increase protein production”.
